{"source": "patent US20190031717A1", "about": "“MULTI-FUNCTIONAL FUSION POLYPEPTIDE, PREPARATION METHOD THEREOF, AND APPLICATION OF SAME” (NANJING ANJI BIOLOGICAL TECHNOLOGY CO., LTD, priority 2016, published 2019)", "key": {"[1]": {"tested_on": "A549 cells induced by TGF-β1 (lung fibrosis model)", "assay": "Hydroxyproline content in TGF-β1-induced A549 pulmonary fibrosis cell model", "type": "cell-based, human", "conditions": "for Hydroxyproline Content Inhibition Rate in the Pulmonary Fibrosis Model: 48 hours", "experimental": "Human non-small cell lung cancer cells A549 were cultured in DMEM medium containing 10% (volume fraction) fetal bovine serum, cultured in a carbon dioxide incubator with a volume fraction of 5% at 37° C., and changed once every other day, depending on cell density. A549 cells in logarithmic growth phase were digested with 0.25% trypsin to prepare a cell suspension, adjusted to a cell concentration of 1×10^9 cells/L, and seeded at a density of 4×10^5 cells/cm2 in a cell culture dish of 90 cm^2. The cells were randomly divided into two groups: (1) control group: cultured in DMEM containing 10% (volume fraction) fetal bovine serum; (2) model group: containing 10% (volume fraction) fetal bovine serum, transforming growth factor (TGF-β1, final concentration 5 μg/L) was cultured in DMEM. The cells were cultured at 37° C. in a volumetric 5% carbon dioxide incubator, and changed every other day, depending on the cell density. Cell morphology was observed daily using an inverted microscope to determine when the model was established. When A549 cells are changed from the cobblestone shape of the original epithelial cells to the long spindle shape of the interstitial cells, the modeling is successfully established.\nAfter 48 hours of addition of the polypeptides, the cells of the control group, the model group, and the administration group were collected for subsequent measurement of molecular markers related to pulmonary fibrosis.\nHydroxyproline accounts for 13.4% of collagen, so the content of hydroxyproline can reflect the accumulation of collagen during pulmonary fibrosis, which in turn reflects the degree of pulmonary fibrosis.\nPrepare citric acid buffer: 120 g of sodium citrate, 12 mL of glacial acetic acid, 46 g of citric acid, 34 g of sodium hydroxide, dissolved in distilled water, adjust the pH to 6.0, and then dilute to 1000 mL.\nPrepare 0.05 mol/L chloramine T solution: weigh 7.05 g of chloramine T, dissolve in 100 mL of distilled water, then add 150 mL of ethylene glycol, and add 250 mL of citric acid buffer to mix well.\nPrepare p-dimethylaminobenzaldehyde: Reagent A: Take 20 mL of absolute ethanol, slowly add 2.74 mL of concentrated sulfuric acid; Reagent B: Take 12.0 g of p-dimethylaminobenzaldehyde, slowly add 40 mL of absolute ethanol. Heat in a water bath to completely dissolve and cool to room temperature, then slowly add the A solution to B and mix well.\nPrepare a […] perchloric acid solution: take 27 mL of perchloric acid and dilute to 100 mL with distilled water.\nThe specific steps are as follows: collect the cells in a 1 mL water solution and lyse the cells using a homogenizer; adjust the pH to neutral, dilute to 3 mL, add activated carbon to centrifuge; take 1 mL supernatant, add 1 mL solution 1 (1 mL citrate buffer and 1 mL 0.05 mol/L chloramine T solution), stand for 10 minutes, add 1 mL of perchloric acid, stand for 5 minutes, add 1 mL of p-dimethylaminobenzaldehyde reagent, keep in 60° C. water bath for 15 minutes; centrifuge at 3500 rpm/min for 10 minutes, take the supernatant to measure the absorbance value at a wavelength of 550 nm.\nThe test was repeated 3 times independently, and the inhibition rate was calculated as follows: inhibition rate (%)=(1−experimental group absorbance/model group absorbance)×100%."}, "Staphylococcal fluid": {"tested_on": "Staphylococcal fluid", "assay": "Mouse pneumonia model, bacterial", "type": "in vivo, BALB/C mice", "parameters": "concentration or dose not given beside the values", "conditions": "mean ± SD", "experimental": "(§1) The mouse pneumonia model was successfully established by the nose-drop method. To build the mouse pneumonia model, BALB/C mice with a body mass of 16-22 g were selected and anesthetized pneumonia chain was prepared after anesthesia with ether on day 0, day 1, and day 2. Staphylococcal fluid, adenovirus concentrate, Mycoplasma pneumoniae, Chlamydia pneumoniae, protozoa, and pneumonia fungi were slowly dripped into the nasal cavity of the mice, so that they enter the tracheobronchial. During the operation process, care was exercised to prevent bacterial fluid from flowing into the esophagus, which leads to inactivation the bacterial fluid. After successful model establishment, the polypeptides of the present invention were administered, and the results were shown in Table 5. […] The results were expressed in average value±standard deviation."}, "Chlamydia pneumoniae": {"tested_on": "Chlamydia pneumoniae", "assay": "Mouse pneumonia model, chlamydia", "type": "in vivo, BALB/C mice", "parameters": "concentration or dose not given beside the values", "conditions": "mean ± SD", "experimental": "as §1"}, "protozoa": {"tested_on": "protozoa", "assay": "Mouse pneumonia model, protozoal", "type": "in vivo, BALB/C mice", "parameters": "concentration or dose not given beside the values", "conditions": "mean ± SD", "experimental": "as §1"}, "Adenocarcinoma": {"tested_on": "Adenocarcinoma", "assay": "MTT assay, lung cancer tumor cells", "type": "cell-based, human", "parameters": "concentration or dose not given beside the values", "conditions": "48 h, mean ± SD", "experimental": "(§2) The inhibition of the growth of human lung cancer tumor cells by the polypeptide of the present invention was examined by MTT assay. The lung cancer tumor cells were cultured in a 37° C., 5% (volume fraction) CO2 incubator to a density of 90% or more, and collected by trypsinization. The cells were resuspended in the culture medium and counted under a microscope to adjust the cell concentration to 2.0×10^4 cells/mL, the cell suspension was inoculated into a 96-well plate at 100 μL per well, and cultured overnight at 37° C. in a 5% (volume fraction) CO2 incubator. After the cells were completely adhered, the polypeptide of the present invention was added as a drug-administered group, and a culture solution containing no drug was used as a blank control group, and the culture solution was diluted to each predetermined concentration. Each dilution was separately added to a 96-well plate at 100 μL per well and incubated for 48 h at 37° C. in a 5% (volume fraction) CO2 incubator. 20 μL of 5 mg/mL MTT was added to each well of a 96-well plate, and incubation was continued for 4 hours. The medium was aspirated, and the cells were dissolved in 100 μL of DMSO per well. The absorbance was measured by a microplate reader at a detection wavelength of 570 nm and a reference wavelength of 630 nm, and the growth inhibition rate was calculated as follows: tumor growth inhibition rate (%)=(1−administered group absorbance value/unadministered group absorbance value)×100%, and the experiment was repeated 3 times independently. The results obtained by the test were expressed as mean±standard deviation. The results in Table 6 indicate that the polypeptides of the present invention have a good inhibitory effect on proliferation of a variety of human lung cancer tumors (FIG. 5)."}, "Adenosquamous carcinoma": {"tested_on": "Adenosquamous carcinoma", "assay": "MTT assay, lung cancer tumor cells", "type": "cell-based, human", "parameters": "concentration or dose not given beside the values", "conditions": "48 h, mean ± SD", "experimental": "as §2"}, "Large cell lung cancer": {"tested_on": "Large cell lung cancer", "assay": "MTT assay, lung cancer tumor cells", "type": "cell-based, human", "parameters": "concentration or dose not given beside the values", "conditions": "48 h, mean ± SD", "experimental": "as §2"}, "[2]": {"tested_on": "Non-small cell lung cancer", "assay": "MTT assay, lung cancer tumor cells", "type": "cell-based, human", "parameters": "concentration or dose not given beside the values", "conditions": "48 h, mean ± SD", "experimental": "as §2"}, "Small Cell Lung Cancer": {"tested_on": "Small Cell Lung Cancer", "assay": "MTT assay, lung cancer tumor cells", "type": "cell-based, human", "parameters": "concentration or dose not given beside the values", "conditions": "48 h, mean ± SD", "experimental": "as §2"}, "Squamous cell carcinoma": {"tested_on": "Squamous cell carcinoma", "assay": "MTT assay, lung cancer tumor cells", "type": "cell-based, human", "parameters": "concentration or dose not given beside the values", "conditions": "48 h, mean ± SD", "experimental": "as §2"}}}
{"substance": "Ile-Val-Arg-Arg-Ala-Asp-Arg-Ala-Ala-Val-Pro-Gly-Gly-Gly-Gly-Pro-(D-Pyr)-(D-Cys)-Bip-Arg-Gly-Glu-Gly-Gly-Gly-Gly-Arg-Gly-Asp [Polypeptide II]", "values": [{"measurement": "effect on content of hydroxyproline in lung fibrosis model cells (FIG. 1-3), in words", "setting": "[1]", "result": "can inhibit the content of hydroxyproline in lung fibrosis model cells"}, {"measurement": "Hydroxyproline Content Inhibition Rate in the Pulmonary Fibrosis Model", "setting": "[1]; 4 uM", "result": 31.28, "unit": "%"}, {"measurement": "Hydroxyproline Content Inhibition Rate in the Pulmonary Fibrosis Model", "setting": "[1]; 8 uM", "result": 57.35, "unit": "%"}, {"measurement": "Inhibitory Effects on Various Pulmonary Infections", "setting": "Staphylococcal fluid", "result": "43.43 ± 12.38", "unit": "%"}, {"measurement": "Inhibitory Effects on Various Pulmonary Infections", "setting": "Chlamydia pneumoniae", "result": "46.02 ± 13.12", "unit": "%"}, {"measurement": "Inhibitory Effects on Various Pulmonary Infections", "setting": "protozoa", "result": "60.59 ± 17.27", "unit": "%"}, {"measurement": "tumor growth inhibition rate, MTT Assay", "setting": "Adenocarcinoma", "result": "86.03 ± 15.85", "unit": "%"}, {"measurement": "tumor growth inhibition rate, MTT Assay", "setting": "Adenosquamous carcinoma", "result": "58.73 ± 10.82", "unit": "%"}, {"measurement": "tumor growth inhibition rate, MTT Assay", "setting": "Large cell lung cancer", "result": "86.28 ± 15.90", "unit": "%"}, {"measurement": "tumor growth inhibition rate, MTT Assay", "setting": "[2]", "result": "90.88 ± 16.75", "unit": "%"}, {"measurement": "tumor growth inhibition rate, MTT Assay", "setting": "Small Cell Lung Cancer", "result": "69.03 ± 12.72", "unit": "%"}, {"measurement": "tumor growth inhibition rate, MTT Assay", "setting": "Squamous cell carcinoma", "result": "65.14 ± 12.00", "unit": "%"}]}
{"substance": "Pro-(D-Pyr)-(D-Cys)-Bip-Arg-Gly-Glu-Gly-Gly-Gly-Gly-Arg-Gly-Asp-Gly-Gly-Gly-Gly-Ile-Val-Arg-Arg-Ala-Asp-Arg-Ala-Ala-Val-Pro [Polypeptide VI]", "values": [{"measurement": "effect on content of hydroxyproline in lung fibrosis model cells (FIG. 1-3), in words", "setting": "[1]", "result": "can inhibit the content of hydroxyproline in lung fibrosis model cells"}, {"measurement": "Hydroxyproline Content Inhibition Rate in the Pulmonary Fibrosis Model", "setting": "[1]; 4 uM", "result": 29.55, "unit": "%"}, {"measurement": "Hydroxyproline Content Inhibition Rate in the Pulmonary Fibrosis Model", "setting": "[1]; 8 uM", "result": 54.17, "unit": "%"}, {"measurement": "Inhibitory Effects on Various Pulmonary Infections", "setting": "Staphylococcal fluid", "result": "39.78 ± 9.86", "unit": "%"}, {"measurement": "Inhibitory Effects on Various Pulmonary Infections", "setting": "Chlamydia pneumoniae", "result": "42.16 ± 13.36", "unit": "%"}, {"measurement": "Inhibitory Effects on Various Pulmonary Infections", "setting": "protozoa", "result": "55.50 ± 18.21", "unit": "%"}, {"measurement": "tumor growth inhibition rate, MTT Assay", "setting": "Adenocarcinoma", "result": "78.80 ± 13.47", "unit": "%"}, {"measurement": "tumor growth inhibition rate, MTT Assay", "setting": "Adenosquamous carcinoma", "result": "53.80 ± 12.33", "unit": "%"}, {"measurement": "tumor growth inhibition rate, MTT Assay", "setting": "Large cell lung cancer", "result": "79.04 ± 14.36", "unit": "%"}, {"measurement": "tumor growth inhibition rate, MTT Assay", "setting": "[2]", "result": "83.25 ± 17.67", "unit": "%"}, {"measurement": "tumor growth inhibition rate, MTT Assay", "setting": "Small Cell Lung Cancer", "result": "63.23 ± 12.96", "unit": "%"}, {"measurement": "tumor growth inhibition rate, MTT Assay", "setting": "Squamous cell carcinoma", "result": "59.67 ± 9.56", "unit": "%"}]}
{"substance": "Pro-(D-Pyr)-(D-Cys)-Bip-Arg-Gly-Glu-Gly-Gly-Gly-Gly-Ile-Val-Arg-Arg-Ala-Asp-Arg-Ala-Ala-Val-Pro-Gly-Gly-Gly-Gly-Arg-Gly-Asp [Polypeptide I]", "values": [{"measurement": "effect on content of hydroxyproline in lung fibrosis model cells (FIG. 1-3), in words", "setting": "[1]", "result": "can inhibit the content of hydroxyproline in lung fibrosis model cells"}, {"measurement": "Hydroxyproline Content Inhibition Rate in the Pulmonary Fibrosis Model", "setting": "[1]; 4 uM", "result": 36.50, "unit": "%"}, {"measurement": "Hydroxyproline Content Inhibition Rate in the Pulmonary Fibrosis Model", "setting": "[1]; 8 uM", "result": 52.14, "unit": "%"}, {"measurement": "Inhibitory Effects on Various Pulmonary Infections", "setting": "Staphylococcal fluid", "result": "33.15 ± 10.06", "unit": "%"}, {"measurement": "Inhibitory Effects on Various Pulmonary Infections", "setting": "Chlamydia pneumoniae", "result": "35.13 ± 13.63", "unit": "%"}, {"measurement": "Inhibitory Effects on Various Pulmonary Infections", "setting": "protozoa", "result": "46.25 ± 18.59", "unit": "%"}, {"measurement": "tumor growth inhibition rate, MTT Assay", "setting": "Adenocarcinoma", "result": "65.67 ± 13.74", "unit": "%"}, {"measurement": "tumor growth inhibition rate, MTT Assay", "setting": "Adenosquamous carcinoma", "result": "44.84 ± 12.58", "unit": "%"}, {"measurement": "tumor growth inhibition rate, MTT Assay", "setting": "Large cell lung cancer", "result": "65.87 ± 14.65", "unit": "%"}, {"measurement": "tumor growth inhibition rate, MTT Assay", "setting": "[2]", "result": "69.38 ± 18.03", "unit": "%"}, {"measurement": "tumor growth inhibition rate, MTT Assay", "setting": "Small Cell Lung Cancer", "result": "52.70 ± 13.22", "unit": "%"}, {"measurement": "tumor growth inhibition rate, MTT Assay", "setting": "Squamous cell carcinoma", "result": "49.73 ± 9.76", "unit": "%"}]}
